In paper PMC7343282, “Tissue Distribution of Several Series of Cationic Surfactants in Rainbow Trout (Oncorhynchus mykiss) Following Exposure via Water” (Environmental Science & Technology, 2020):

Columns and labels:
[1] = Tissue concentrations in rainbow trout after 7 d exposure via water (two mixtures); format: in vivo, Oncorhynchus mykiss; conditions: rainbow trout (Oncorhynchus mykiss), in vivo
How it was run: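 Rainbow trout (98–165 g) held at 10 °C, pH 7.5, in flow-through aquaria and exposed 7 d to methanol-dissolved mixtures infused into inflow; intended water levels 2.5–50 μg L^–1. Skin rinsed with methanol; muscle, skin, liver, gills homogenized, methanol-extracted (50 °C, 60 min), isotope-labeled standards added, WCX SPE cleanup.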

[2] = test system: rainbow trout (Oncorhynchus mykiss); assay: Contribution of tissues to fish body burden; format: in vivo; conditions: for Contribution of Blood to the fish's body burden / Contribution of Gills to the fish's body burden / Contribution of Liver to the fish's body burden / Contribution of Mucus to the fish's body burden / Contribution of Other tissue (all apart from blood, liver, gills and skin; muscle concentration assumed) to body burden / Contribution of Skin to the fish's body burden: fraction
[3] = Table S2; cited from earlier work
[4] = Membrane-water partition/distribution coefficient; conditions: extrapolated from data of Timmer and Droge (2017)
[5] = mean across fish, Figure 1, Q10, Q14 maximum estimates

With `CCCCCCCCCCCCCCCCN` [P16, hexadecylamine] the concentration at 7 d ([1]; Concentration in skin) was 415 ng/g, the concentration at 7 d ([1]; pH 7.5, Concentration in blood) was 119 ng/g and the concentration at 7 d ([1]; pH 7.5, Concentration in gills) was 7960 ng/g. It also gave a concentration at 7 d ([1]; pH 7.5, Concentration in liver) of 5450 ng/g, a concentration at 7 d ([1]; pH 7.5, Concentration in muscle) of 90 ng/g and a concentration at 7 d ([1]; pH 7.5, Concentration in skin) of 364 ng/g. The “Contribution of Blood to the fish's body burden” value (“Contribution of Blood” below) ([2]; Fish #1) was 0.013, the “Contribution of Gills to the fish's body burden” value (“Contribution of Gills” for short) ([2]; Fish #1) was 0.62 and the “Contribution of Liver to the fish's body burden” value (“Contribution of Liver” for short) ([2]; Fish #1) was 0.11. For the same compound, the “Contribution of Mucus to the fish's body burden” value (from here on “Contribution of Mucus”) ([2]; Fish #1) was 0.04, the “Contribution of Other tissue (all apart from blood, liver, gills and skin; muscle concentration assumed) to body burden” value (from here on “Contribution of Other tissue”) ([2]; Fish #1) was 0.14 and the “Contribution of Skin to the fish's body burden” value (shortened to “Contribution of Skin”) ([2]; Fish #1) was 0.08. The “Contribution of Blood” value ([2]; Fish #2) was 0.011, the “Contribution of Gills” value ([2]; Fish #2) was 0.57 and the “Contribution of Liver” value ([2]; Fish #2) was 0.14. For the same compound, the “Contribution of Mucus” value ([2]; Fish #2) was 0.03, the “Contribution of Other tissue” value ([2]; Fish #2) was 0.13 and the “Contribution of Skin” value ([2]; Fish #2) was 0.12. For the same compound, the “Contribution of Blood” value ([2]; Fish #3) was 0.012, the “Contribution of Liver” value ([2]; Fish #3) was 0.12 and the “Contribution of Mucus” value ([2]; Fish #3) was 0.04. For the same compound, the “Contribution of Other tissue” value ([2]; Fish #3) was 0.15, the “Contribution of Skin” value ([2]; Fish #3) was 0.10 and the “Contribution of Blood” value ([2]; Fish #4) was 0.010. The “Contribution of Gills” value ([2]; Fish #4) was 0.50, the “Contribution of Liver” value ([2]; Fish #4) was 0.15 and the “Contribution of Mucus” value ([2]; Fish #4) was 0.04. The “Contribution of Other tissue” value ([2]; Fish #4) was 0.18, the “Contribution of Skin” value ([2]; Fish #4) was 0.12 and the “Contribution of Blood” value ([2]; Fish #5) was 0.008. For the same compound, the “Contribution of Gills” value ([2]; Fish #5) was 0.65, the “Contribution of Liver” value ([2]; Fish #5) was 0.08 and the “Contribution of Mucus” value ([2]; Fish #5) was 0.05. For the same compound, the “Contribution of Other tissue” value ([2]; Fish #5) was 0.11, the “Contribution of Skin” value ([2]; Fish #5) was 0.10 and the “Contribution of Blood” value ([2]; Fish #6) was 0.016. The “Contribution of Gills” value ([2]; Fish #6) was 0.58, the “Contribution of Liver” value ([2]; Fish #6) was 0.11 and the “Contribution of Mucus” value ([2]; Fish #6) was 0.06. For the same compound, the “Contribution of Other tissue” value ([2]; Fish #6) was 0.11, the “Contribution of Skin” value ([2]; Fish #6) was 0.13 and the “Contribution of Blood” value ([2]; Mean) was 0.012. The “Contribution of Gills” value ([2]; Mean) was 0.58, the “Contribution of Liver” value ([2]; Mean) was 0.12 and the “Contribution of Mucus” value ([2]; Mean) was 0.04. The “Contribution of Other tissue” value ([2]; Mean) was 0.13, the “Contribution of Skin” value ([2]; Mean) was 0.11 and the “Share of body burden present in gills and mucus” value ([2]; in vivo) was “at least 50%”. The “% contribution to body burden, Gills” value ([2]; mean across fish, Figure 1) was 58%, the “% contribution to body burden, Mucus” value ([2]; mean across fish, Figure 1) was 4% and the “% contribution to body burden, Liver” value [2, 5] was 12%. For the same compound, the “% contribution to body burden, Skin” value [2, 5] was 11%, the “% contribution to body burden, Muscle” value ([2]; mean across fish, Figure 1, includes all tissues not specifically analyzed, Q10, Q14 maximum estimates) was 13% and the pKa [3] was 10.5. For the same compound, the “Log KMW,C (membrane-water partition coefficient of the charged form), extrapolated” value [4] was 7.90.
